Results published in article PMC7144940, “Principles of RNA and nucleotide discrimination by the RNA processing enzyme RppH” (Nucleic Acids Research, 2020).
“Also recorded” adds a separate entry of the source. Where two headings read alike, the source gives them in different places. One block for each molecule: values may come before it.

Tests used:
[1] = molecular target: T1, Escherichia coli RppH (Escherichia coli, UniProt P0A776); type: biochemical; set-up: 0.1 mM substrate and 1 μM full-length RppH in case of nucleotides; decahistidine (N, cleaved yes); SUMO (N, cleaved yes); made in house; host or cells: E. coli BL21(DE3); conditions: for hydrolysis by RppH (TLC): 1 mM substrate, 5 μM RppH, 37°C, 1 h
Method: Reactions for thin layer chromatography (TLC) were performed with 1 mM nucleotide substrates and 5 μM of the full-length RppH, in a 10-μl solution containing 10 mM MgCl2 and 50 mM buffer with different pH. Buffers were: MES-NaOH, pH 6.0; Na-cacodylate-HCl, pH 6.5; MOPS-NaOH, pH 7.0; HEPES-NaOH, pH 7.5; Tris-HCl, pH 8.0, 8.5 and 9.0. Reactions were incubated at 37°C for 1 h and quenched with 5 μl of 150 mM ethylenediaminetetraacetic acid (EDTA). Samples were analyzed on PEI-cellulose plates (F-254, Selecto Scientific) in 0.3 M potassium phosphate buffer, pH 7.5, for adenosine triphosphate (ATP), adenosine diphosphate (ADP), GTP, GDP, pppAG (RNA), ppGpp and pppGpp, and pH 3.3 for CTP and CDP, UTP and UDP. RNAs were visualized by UV254 shadowing. The equimolar amount of wild-type E. coli DapF ([8]) was added to the reactions for testing RppH activity stimulation at pH 7.5. Inhibition of RppH activity was conducted using NaF (Sigma-Aldrich) at 1–10 mM. For TLC experiments, original colored images were converted to black-and-white images, and the levels of brightness were adjusted to enhance the contrast and better visualize reaction products.
Target sequence in this assay (P0A776 whole entry): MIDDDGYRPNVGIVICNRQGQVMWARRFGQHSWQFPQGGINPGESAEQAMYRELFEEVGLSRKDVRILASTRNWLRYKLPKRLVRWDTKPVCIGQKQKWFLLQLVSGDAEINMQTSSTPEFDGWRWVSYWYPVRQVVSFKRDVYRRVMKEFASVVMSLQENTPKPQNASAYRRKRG

[2] = molecular target: T1, Escherichia coli RppH; assay: Metal dependence of RppH reactivity (TLC); type: biochemical; set-up: RppHd (Δ161-176); Nterm-Ser0-Met1; decahistidine (N, cleaved yes); SUMO (N, cleaved yes); made in house; host or cells: E. coli BL21(DE3); conditions: 5 mM substrate, 5 μM RppHd
Method: Reactions were performed with 5 mM GTP and 5 μM RppHd, in a 20-μL solution containing 10 mM divalent cation salt (MgCl2, MnCl2, NiCl2, or CaCl2) and 50 mM buffer with different pH (HEPES-Na, pH 7.5; Tris-HCl, pH 8.0, 8.5, 9.0). Reactions were incubated at 37 °C for 1 h and quenched with 10 μL 150 mM EDTA. Samples were analyzed on PEI-cellulose plates in 0.3 M potassium phosphate buffer, pH 7.5, at room temperature. RNAs were visualized by UV254 shadowing.
Target sequence in this assay (P0A776 1-160): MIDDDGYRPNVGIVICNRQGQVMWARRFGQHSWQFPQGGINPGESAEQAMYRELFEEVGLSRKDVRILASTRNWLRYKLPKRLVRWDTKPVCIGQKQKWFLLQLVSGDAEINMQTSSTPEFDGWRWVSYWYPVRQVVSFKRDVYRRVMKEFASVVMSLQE

[3] = molecular target: T1, Escherichia coli RppH; type: biochemical; set-up: 0.1 mM substrate and 1 μM full-length RppH in case of nucleotides; decahistidine (N, cleaved yes); SUMO (N, cleaved yes); made in house; host or cells: E. coli BL21(DE3); conditions: for initial reaction rate of hydrolysis by RppH: nucleotide substrate 0.1 mM, 1 μM full-length RppH, pH 7.5, 10 mM MgCl2, 37°C, linear regression, n = 2, error is SE
Method: (§1) RppH activity on pppAG and ppAG RNAs, NTPs, NDPs, and ppGpp was determined by kinetic analysis, as described in ref. ([6]). Each reaction mixture contained 0.1 mM substrate and 1 μM full-length RppH in case of nucleotides and 0.1 μM RppH in case of RNA, in a 50-μL solution containing 50 mM HEPES-NaOH, pH 7.5, 10 mM MgCl2 , 0.1% Triton X-100, at 37°C. Reactions were incubated for 0–20 min and quenched with 750 μl of 50 mM sodium acetate, pH 4.5. The quenched reaction samples were analyzed by anion-exchange chromatography on a 5 × 50 mm MonoQ column (GE Healthcare). The reaction products and remaining substrates were eluted with a 0–1.0 M NaCl gradient in 10 mM Tris-HCl, pH 7.5, detected at 260 nm, and the amount of each mono- or oligonucleotide was calculated by using the integration function in UNICORN software (GE Healthcare). The initial reaction rates were calculated based on the ratio between remaining substrate and reaction products using a linear fit model of GraphPad. Each assay was repeated at least twice.
Target sequence in this assay (P0A776 whole entry): as the sequence (P0A776 whole entry) above

[4] = molecular target: T1, Escherichia coli RppH; assay: Competition experiments: inhibition of RNA hydrolysis by nucleotides; type: biochemical; set-up: 0.1 mM substrate and 1 μM full-length RppH in case of nucleotides; decahistidine (N, cleaved yes); SUMO (N, cleaved yes); made in house; host or cells: E. coli BL21(DE3)
Method: as §1
Target sequence in this assay (P0A776 whole entry): as above
Competition experiments were conducted using the same protocol as cleavage assays with the 0.1 mM substrate RNA concentration, the nucleotide concentration ranging between 0.1-5.0 mM, and 10 min incubation. The initial reaction rates were calculated based on the ratio between reaction products and remaining substrate using a linear fit model of GraphPad software. Because of peak overlap, inhibition of GTP hydrolysis was determined solely based on quantification of the reaction products. IC50 values were determined using an IC50 model of GraphPad.

[5] = molecular target: T2, DapFm (E. coli DapF with Y268A and R36A mutations) (Escherichia coli, UniProt P0A6K1 1-274, Y268A | R36A); assay: crystal structure; RppHt-DapFm complex formed by mixing DapFm and RppHt at a molar ratio of 1:1.2 (20 mM Tris-HCl pH 8.0, 500 mM NaCl, 1 mM DTT), purified on Superdex 200; crystals from 30% PEG400, 0.1 M CHES pH 9.2, 18°C; soaked with GTP, GDP or pppGpp with MgCl2 and NaF; conditions: both partners purified
T2 construct: extra serine left at the N-terminus of all proteins by the ULP1 cleavage of the His10-SUMO tags; DapF (diaminopimelate epimerase), Escherichia coli, mutated variant of the full-length protein with Y268A and R36A; source: E. coli BL21(DE3), purified (HisTrap FF, tag cleavage by ULP1, Superdex 200); not shown: decahistidine, N-terminal, cleaved; SUMO, N-terminal, cleaved
T2 sequence: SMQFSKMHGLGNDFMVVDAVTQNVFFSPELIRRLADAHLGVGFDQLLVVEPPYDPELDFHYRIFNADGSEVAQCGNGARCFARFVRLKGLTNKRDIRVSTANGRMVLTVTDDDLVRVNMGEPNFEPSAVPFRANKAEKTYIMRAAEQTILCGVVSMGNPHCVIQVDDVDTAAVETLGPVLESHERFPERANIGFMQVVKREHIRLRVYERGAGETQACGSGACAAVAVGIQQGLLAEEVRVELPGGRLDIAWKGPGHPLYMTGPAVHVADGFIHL

[6] = longer incubation, pH 7.5, 1 μM RppH

Molecule: Nc1ncnc2c1ncn2[C@@H]1O[C@H](COP(=O)(O)OP(=O)(O)O)[C@@H](O)[C@H]1O [ADP, adenosine diphosphate]
- hydrolysis by RppH (TLC) ([1]; pH 8.0): all

- effect on E. coli RppH activity (TLC) ([1]; NaF 1-10 mM, GTP and GDP at pH 8.0, pppGpp and ppGpp at pH 7.5): Inhibition
Molecule: F [fluoride]

Molecule: Nc1nc2c(ncn2[C@@H]2O[C@H](COP(=O)(O)OP(=O)(O)OP(=O)(O)O)[C@@H](O)[C@H]2O)c(=O)[nH]1 [GTP, guanosine triphosphate]
- hydrolysis by RppH in the presence of Mg2+ ([2]; 10 mM MgCl2, pH 7.5-9.0, 1 h): support hydrolysis most; also recorded: most efficiently
- hydrolysis by RppH in the presence of Mn2+ ([2]; 10 mM MnCl2, pH 7.5-9.0, 1 h): very low efficiency; also recorded: some activity
- hydrolysis by RppH in the presence of Ni2+ or Ca2+ ([2]; 10 mM NiCl2 or CaCl2, pH 7.5-9.0, 1 h): do not support hydrolysis; also recorded: no activity
- undigested substrate remaining at plateau [3, 6]: ~70%
- initial reaction rate of hydrolysis by RppH [3]: 3.1 ± 0.13 µM/min
- IC50 [4]: ~4100 µM
- IC50 ([4]; IC50, inhibition of RppH reactivity with pppAG RNA, 0.1 mM pppAG RNA, nucleotide 0.1-5.0 mM, 10 mM Mg2+, pH 7.5, 10 min, n = 2, mean ± SE): 1580 µM
- IC50 ([4]; IC50, range over pppAG and ppAG RNA substrates, pppAG and ppAG RNA): 1600 to 4100 µM
- IC50 ([4]; concentration to achieve 2-fold inhibition of the reaction of RppH with ppAG, ppAG RNA): ~4100 µM
- IC50 ([4]; concentration to achieve 2-fold inhibition of the reaction of RppH with pppAG, pppAG RNA): ~1600 µM
- hydrolysis by RppH (TLC) ([1]; pH 8.5 and 9.0): majority

Molecule: Nc1ccn([C@@H]2O[C@H](COP(=O)(O)OP(=O)(O)OP(=O)(O)O)[C@@H](O)[C@H]2O)c(=O)n1 [CTP, cytidine triphosphate]
- hydrolysis by RppH (TLC) ([1]; pH 8.5 and 9.0): majority

Molecule: Nc1nc2c(ncn2[C@@H]2O[C@H](COP(=O)(O)OP(=O)(O)O)[C@@H](OP(=O)(O)OP(=O)(O)O)[C@H]2O)c(=O)[nH]1 [ppGpp]
- initial reaction rate of hydrolysis by RppH [3]: 1.20 ± 0.07 µM/min
- times less reactive than GDP ([3]; ratio of initial rates, pH 7.5): ~2.8
- hydrolysis by RppH (TLC) ([1]; pH 7.0): slow hydrolysis
- hydrolysis by RppH (TLC) ([1]; pH 7.5): About half
- hydrolysis by RppH (TLC) ([1]; pH 8.0): most

Molecule: Nc1nc2c(ncn2[C@@H]2O[C@H](COP(=O)(O)OP(=O)(O)OP(=O)(O)O)[C@@H](OP(=O)(O)OP(=O)(O)O)[C@H]2O)c(=O)[nH]1 [pppGpp]
- initial reaction rate of hydrolysis by RppH [3]: 1.30 ± 0.10 µM/min
- times less reactive than GTP ([3]; ratio of initial rates, pH 7.5): ~2.4
- hydrolysis by RppH (TLC) ([1]; pH 7.5): very slow hydrolysis
- hydrolysis by RppH (TLC) ([1]; pH 8.0): moderate hydrolysis

Molecule: O=c1ccn([C@@H]2O[C@H](CO[P@@](=O)(O)O[P@@](=O)(O)OP(=O)(O)O)[C@@H](O)[C@H]2O)c(=O)[nH]1 (stereo in doubt) [UTP, uridine triphosphate]
- hydrolysis by RppH (TLC) ([1]; pH 8.5 and 9.0): majority

Molecule: Nc1ccn([C@@H]2O[C@H](COP(=O)(O)OP(=O)(O)O)[C@@H](O)[C@H]2O)c(=O)n1 [CDP]
- hydrolysis by RppH (TLC) ([1]; pH 8.0): almost all

Molecule: Nc1ncnc2c1ncn2[C@@H]1O[C@H](COP(=O)(O)OP(=O)(O)OP(=O)(O)O)[C@@H](O)[C@H]1O [ATP, adenosine triphosphate]
- undigested substrate remaining at plateau [3, 6]: ~70%
- initial reaction rate of hydrolysis by RppH [3]: 4.2 ± 0.24 µM/min
- hydrolysis by RppH (TLC) ([1]; pH 8.5 and 9.0): all

Molecule: O=c1ccn([C@@H]2O[C@H](COP(=O)(O)OP(=O)(O)O)[C@@H](O)[C@H]2O)c(=O)[nH]1 [UDP]
- hydrolysis by RppH (TLC) ([1]; pH 8.0): almost all

Molecule: Nc1nc2c(ncn2[C@@H]2O[C@H](COP(=O)(O)OP(=O)(O)O)[C@@H](O)[C@H]2O)c(=O)[nH]1 [GDP]
- conversion of substrate, without approaching a plateau [3, 6]: ~50%
- initial reaction rate of hydrolysis by RppH [3]: 3.4 ± 0.07 µM/min
- IC50 ([4]; 0.1 mM ppAG RNA, nucleotide 0.1-5.0 mM, 10 mM Mg2+, pH 7.5, 10 min, n = 2, mean ± SE, GTP value estimated from a smooth curve, read-out: IC50, inhibition of RppH reactivity with ppAG RNA): ~59 µM
- IC50 ([4]; 0.1 mM pppAG RNA, nucleotide 0.1-5.0 mM, 10 mM Mg2+, pH 7.5, 10 min, n = 2, mean ± SE, read-out: IC50, inhibition of RppH reactivity with pppAG RNA): ~32 µM
- hydrolysis by RppH (TLC) ([1]; pH 8.0): almost all

- binding result [5]: binds
B1: RppHt (E. coli RppH, Δ161-176 and Q159A/E160A) (enzyme, Escherichia coli)
chain: SMIDDDGYRPNVGIVICNRQGQVMWARRFGQHSWQFPQGGINPGESAEQAMYRELFEEVGLSRKDVRILASTRNWLRYKLPKRLVRWDTKPVCIGQKQKWFLLQLVSGDAEINMQTSSTPEFDGWRWVSYWYPVRQVVSFKRDVYRRVMKEFASVVMSLAA
notes: extra serine (Ser0) left at the N-terminus by the ULP1 cleavage of the His10-SUMO tags; RNA pyrophosphohydrolase RppH, Escherichia coli, C-terminally truncated variant Δ161-176 (Met1 to residue 160) with Q159A/E160A; printed as Nterm-Ser0-Met1…Ala159-Ala160-Cterm; source: E. coli BL21(DE3), purified (HisTrap FF, tag cleavage by ULP1, HiTrap SP, Superdex 75); not shown: decahistidine, N-terminal, …
